The source made the active and inactive calls. The rule behind the calls is not given here.

L/CE data for 22 compounds are collected here from ChEMBL document CHEMBL1128096, “Gamma-lactams and related compounds as cholesterol absorption inhibitors: homologs of the beta-lactam cholesterol absorption inhibitor SCH 484611” (1995).

The test system of the first experiment is Cricetinae gen. sp. Nature of the experiment: Tested for ability to reduce liver cholesterol ester (L/CE) levels in the cholesterol fed hamster model at a dose of 10 mg/kg. In kind it is functional, Cricetulus griseus.
Conditions: not given
Compound `COc1ccc([C@@H]2[C@@H](CCCc3ccccc3)C(=O)N2c2ccc(OC)cc2)cc1` [SCH-48461] yielded a L/CE of 93%.

Compound `COc1ccc([C@@H]2[C@H](CCCc3ccccc3)C(=O)N2c2ccc(OC)cc2)cc1` displayed a L/CE of 69%.

In a further experiment the test system is Cricetinae gen. sp. Nature of the experiment: Ability to reduce liver cholesterol ester (L/CE) levels in the cholesterol fed hamster model at a dose of 50 mg/k. In kind it is functional, Cricetulus griseus.
Conditions: not given
The compound `COc1ccc([C@@H]2[C@@H](c3ccc4ccccc4c3)CC(=O)N2c2ccc(OC)cc2)cc1` displayed a L/CE of 28%.

Turning to `COc1ccc([C@@H]2[C@H](CCCCc3ccccc3)CC(=O)N2c2ccc(OC)cc2)cc1`, the L/CE worked out at 30%.

Take `COc1ccc([C@@H]2[C@@H](CCc3ccccc3)NC(=O)N2c2ccccc2)cc1`: the L/CE is 34%.

`COc1ccc([C@@H]2[C@@H](CCCc3ccccc3)CC(=O)N2c2ccc(OC)cc2)cc1` displayed a L/CE of 12%.

Turning to `COc1ccc([C@@H]2[C@H](CCCc3ccccc3)CC(=O)N2c2ccc(OC)cc2)cc1`, the L/CE is 43%.

With `COc1ccc([C@@H]2[C@H](CCCc3ccccc3)C(=O)N2c2ccc(OC)cc2)cc1` (racemic), the L/CE is 95%.

Take `COc1ccc([C@@H]2[C@H](CCc3ccccc3)OC(=O)N2c2ccccc2)cc1`: the L/CE came out at 21%.

`COc1ccc([C@@H]2[C@H](CCCc3ccccc3)S(=O)(=O)N2c2ccccc2)cc1` gave a L/CE of 43%.

The compound `COc1ccc([C@@H]2[C@@H](CCCc3ccccc3)C(=O)N2c2ccc(OC)cc2)cc1` [SCH-48461] gave a L/CE of 78%.

In turn, `COc1ccc([C@@H]2[C@H](CCc3ccccc3)CC(=O)N2c2ccc(OC)cc2)cc1` showed a L/CE of 16%.

In turn, `COc1ccc([C@@H]2[C@@H](CCCCc3ccccc3)CC(=O)N2c2ccc(OC)cc2)cc1` returned a L/CE of 52%.

`COc1ccc([C@@H]2[C@@H](CCc3ccccc3)OC(=O)N2c2ccccc2)cc1` gave a L/CE of 34%.

The compound `COc1ccc([C@@H]2[C@@H](CCc3ccccc3)CC(=O)N2c2ccc(OC)cc2)cc1` registered a L/CE of 24%.

Take `COc1ccc([C@@H]2[C@@H](CCCc3ccccc3)S(=O)(=O)N2c2ccccc2)cc1`: the L/CE worked out at 51%.

With `COc1ccc([C@@H]2[C@@H](CCCc3ccccc3)OC(=O)N2c2ccccc2)cc1`, the L/CE was 47%.

`COc1ccc([C@@H]2[C@@H](CCCc3ccccc3)C(=S)N2c2ccc(OC)cc2)cc1` showed a L/CE of 23%.

The compound `COc1ccc([C@@H]2[C@H](c3ccc4ccccc4c3)CC(=O)N2c2ccc(OC)cc2)cc1` showed a L/CE of 21%.

The subject of another experiment is Cricetinae gen. sp. Nature of the experiment: Tested for ability to reduce liver cholesterol ester (L/CE) levels in the cholesterol fed hamster model at a dose of 50 mg/kg; NE: No effect. In kind it is functional, organism-based. The note with it: Cricetulus griseus. The arrangement: dose 50 mg/kg.
Turning to `COc1ccc([C@@H]2C[C@@H](CCCCc3ccccc3)C(=O)N2c2ccccc2)cc1`, the L/CE result is “inactive”.

For the compound `COc1ccc([C@H]2C[C@@H](CCCCc3ccccc3)C(=O)N2c2ccccc2)cc1`, the L/CE result was “inactive”.

As for `COc1ccc([C@@H]2C[C@@H](CCCc3ccccc3)C(=O)N2c2ccc(OC)cc2)cc1`, the L/CE result is “inactive”.

As for `COc1ccc([C@H]2CN(c3ccc(OC)cc3)C(=O)[C@@H]2CCCc2ccccc2)cc1`, the L/CE result is “inactive”.
